Drawing on patent US5585383A, “Process for crystallizing a 4-azasteroid 5alpha-reductase inhibitor” (Merck & Co., Inc., priority 1995, dated 1996), this text covers polymorph stability for two compounds.

Entries after “also recorded” stand apart in the source; their conditions may differ.

This data set can be described thus: Relative stability of crystalline polymorphs (DSC, x-ray powder diffraction). As to conditions: non-solvated crystalline forms of 4,7β-dimethyl-4-aza-5α-cholestan-3-one. The class given is physicochemical. The procedure:
The crystallinity of each batch was determined primarily from Differential Scanning Calorimetry (DSC) employing a DuPont Model 910 Thermal Analyzer. However, any other reliable means may be employed to determine the crystallinity of a sample, such as x-ray powder diffraction, solid state NMR, or polarizing microscopy.
Generally, a DSC sample was prepared by weighing. 10 to 30 mg of material into a DSC cup and crimping the cup closed. Preferably, each DSC sample was run as soon as possible after preparation, most preferably within 15 minutes of preparation, because crystallinity increases with aging. Generally, samples were heated at a rate of 10° C./min from 10° C. to 100° C. under nitrogen. The DSC peaks were integrated and the measured heat of formation was divided by 46.6 J/g (the average heat of formation of samples confirmed by x-ray diffraction to contain no Form II) to calculate the percent crystallinity of the sample. The term percent crystallinity refers to the weight percent of 4,7β-dimethyl-4-aza-5α-cholestan-3-one sample weight in Form I.
X-ray diffraction was also employed to confirm DSC results. […] This method was not employed for quantitative analysis of the degree of crystallinity.

Consider `CC(C)CCC[C@@H](C)[C@H]1CC[C@H]2[C@@H]3[C@@H](C)C[C@H]4N(C)C(=O)CC[C@]4(C)[C@H]3CC[C@]12C` [Form I, 4,7β-dimethyl-4-aza-5α-cholestan-3-one], for which the polymorph stability entry was “more stable, energetically favored polymorph”.
As for `CC(C)CCC[C@@H](C)[C@H]1CC[C@H]2[C@@H]3[C@@H](C)C[C@H]4N(C)C(=O)CC[C@]4(C)[C@H]3CC[C@]12C` [Form II, 4,7β-dimethyl-4-aza-5α-cholestan-3-one], the polymorph stability result is listed as “transforms to Form I with time and/or mechanical manipulation; also recorded: less energetically favored polymorph”.
